Publication PMC8372979 (Journal of medicinal chemistry, 2020)

Legend:
[1] = system: Caco-2 cells; assay: Caco-2 permeability; type: in vitro ADME
[2] = system: CYP3A4; assay: CYP3A4 induction; type: in vitro ADME; conditions: in words
[3] = Pharmacokinetics in female NMRI mice; type: in vivo, mouse
[4] = system: Bloodstream Trypanosoma brucei brucei Lister 427 (STIB 795); assay: Growth inhibition assay for T. brucei brucei; type: cell-based; conditions: pEC50=−logEC50; 72 h, resazurin

With `Cn1nccc1Nc1nc(NCC(F)(F)F)c2nc[nH]c2n1` [Compound 4aa, N^2-(1-methyl-1H-pyrazol-5-yl)-N^6-(2,2,2-trifluoroethyl)-9H-purine-2,6-diamine] the “A-B Permeability Ranking” value ([1]; Caco-2) was “Higher”, the Caco-2 efflux ([1]; in words) was “rapidly effluxed” and the Caco-2 permeability ([1]; in words) was “Permeable”. For the same molecule, the “CYP3A4 Liability (induction)” value [2] was “does not have CYP3A4 induction liability”, the Cmax ([3]; female, NMRI, mouse, in vivo, ip, 10 mg/kg, Mean Cmax ± SD, non-infected female NMRI mice, 10 mg/kg ip, without ABT-pretreatment, blood) was 3670 ± 922 ng/mL and the Mean tmax ([3]; infected female NMRI mice, 30 mg/kg ip + ABT, day 1, blood) was 30 to 120 min.

For “N^6-(tert-butyl)-N^2-(thiophen-3-yl)-9H-purine-2,6-diamine [Compound 5r]”, the “T. brucei pEC50” value [4] was 7.1.
